Assay results as given in PubChem BioAssay AID509.

Molecular target: Peroxisomal multifunctional enzyme type 2 (Homo sapiens) (UniProt P51659)
Experiment: HSD17B4 binders by thermal shift, biophysical, DSF, SYPRO orange, recombinant protein (AID 509)
Settings: protein 2 µM, buffer 10 mM HEPES, pH 7.5, NaCl 150 mM, stronger effect = higher value

Peroxisomal multifunctional enzyme type 2 (Homo sapiens), sequence (P51659 whole entry, looked up): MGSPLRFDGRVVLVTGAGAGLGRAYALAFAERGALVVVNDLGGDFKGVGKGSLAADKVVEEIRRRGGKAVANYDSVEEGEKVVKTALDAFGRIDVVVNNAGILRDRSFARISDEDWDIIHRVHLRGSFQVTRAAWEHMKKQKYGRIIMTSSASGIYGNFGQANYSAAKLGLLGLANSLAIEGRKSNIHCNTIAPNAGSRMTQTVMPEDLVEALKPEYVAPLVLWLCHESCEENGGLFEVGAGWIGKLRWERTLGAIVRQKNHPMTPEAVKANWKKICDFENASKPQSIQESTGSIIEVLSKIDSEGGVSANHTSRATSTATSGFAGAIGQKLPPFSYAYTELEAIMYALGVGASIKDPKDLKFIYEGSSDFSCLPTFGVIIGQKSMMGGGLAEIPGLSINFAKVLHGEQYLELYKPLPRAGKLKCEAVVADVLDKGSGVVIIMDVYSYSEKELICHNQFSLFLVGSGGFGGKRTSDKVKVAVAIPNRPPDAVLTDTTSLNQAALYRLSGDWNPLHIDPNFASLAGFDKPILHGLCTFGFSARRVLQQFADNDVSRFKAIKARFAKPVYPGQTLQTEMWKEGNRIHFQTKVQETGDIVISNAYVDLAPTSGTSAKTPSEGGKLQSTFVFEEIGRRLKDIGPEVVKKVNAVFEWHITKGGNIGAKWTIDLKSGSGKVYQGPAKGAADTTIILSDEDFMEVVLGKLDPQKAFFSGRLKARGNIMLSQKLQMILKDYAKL

SMILES	Tm shift (at 10 µM)	Tm shift (at 100 µM)
Oc1cc(O)c2cc(O)c(-c3ccc(O)c(O)c3)[o+]c2c1	2.1 Celsius	
O=C1C2(Cl)C3(Cl)C4(Cl)C(Cl)(Cl)C5(Cl)C3(Cl)C1(Cl)C5(Cl)C24Cl (configuration not stated)		3 Celsius
